Reference: patent publication US10670605B2, “Cysteine reactive probes and uses thereof” (The Scripps Research Institute, priority 2015, dated 2020)

Legend:
Experiment in all cases: Competitive isoTOP-ABPP, cell lysates
Format in all cases: binding
GSTP1 C48 (P09211) = GSTP1 C48 (P09211) (Homo sapiens, UniProt P09211); conditions: for R value (DMSO/fragment): 250 μM, in vitro; for isoTOP-ABPP ratio, P09211_C48: 500 μM, invitro
IDH1 C269 (O75874) = IDH1 C269 (O75874) (Homo sapiens, UniProt O75874); conditions: for isoTOP-ABPP ratio, O75874_C269: 500 μM, invitro
MGMT C150 (P16455) = target: T1, MGMT C150 (P16455) (Homo sapiens, UniProt P16455); conditions: for isoTOP-ABPP ratio, P16455_C150: 500 μM, invitro, ramos; for isoTOP-ABPP ratio (reactivity profile), P16455_C150: 500 μm in-vitro ramos
T1 sequence (P16455 1-207): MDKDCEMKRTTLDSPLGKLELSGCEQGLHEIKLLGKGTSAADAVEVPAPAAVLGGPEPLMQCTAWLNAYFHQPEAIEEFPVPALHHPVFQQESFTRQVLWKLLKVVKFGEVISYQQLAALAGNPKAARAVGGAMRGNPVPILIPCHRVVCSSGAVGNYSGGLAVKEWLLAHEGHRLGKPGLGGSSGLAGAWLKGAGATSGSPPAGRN

PCK2 C306 (Q16822) = target: T2, PCK2 C306 (Q16822) (Homo sapiens, UniProt Q16822); conditions: for isoTOP-ABPP ratio, Q16822_C306: 500 μM, invitro
T2 sequence (Q16822 33-640): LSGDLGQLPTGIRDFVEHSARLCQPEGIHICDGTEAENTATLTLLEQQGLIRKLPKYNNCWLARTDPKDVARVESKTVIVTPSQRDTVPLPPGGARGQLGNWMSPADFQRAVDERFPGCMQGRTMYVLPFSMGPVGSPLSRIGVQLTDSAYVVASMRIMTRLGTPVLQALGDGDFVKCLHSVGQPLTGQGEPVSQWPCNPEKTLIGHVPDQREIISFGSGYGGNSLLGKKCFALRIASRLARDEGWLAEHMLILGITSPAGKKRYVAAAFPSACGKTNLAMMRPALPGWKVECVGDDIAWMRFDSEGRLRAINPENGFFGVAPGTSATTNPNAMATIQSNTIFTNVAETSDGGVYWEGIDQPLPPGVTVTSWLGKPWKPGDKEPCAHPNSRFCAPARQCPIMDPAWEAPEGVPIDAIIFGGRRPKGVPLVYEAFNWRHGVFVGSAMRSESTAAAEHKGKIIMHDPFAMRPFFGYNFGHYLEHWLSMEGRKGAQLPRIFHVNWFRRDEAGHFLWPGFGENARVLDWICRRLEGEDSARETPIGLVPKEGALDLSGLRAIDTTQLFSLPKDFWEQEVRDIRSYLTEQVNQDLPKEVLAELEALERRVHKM

PDIA6 C190 (Q15084) = target: T3, PDIA6 C190 (Q15084) (Homo sapiens, UniProt Q15084); conditions: for R value (DMSO/fragment): 250 μM, in vitro; for isoTOP-ABPP ratio, Q15084_C190: 500 μM, invitro
T3 sequence (Q15084 20-440): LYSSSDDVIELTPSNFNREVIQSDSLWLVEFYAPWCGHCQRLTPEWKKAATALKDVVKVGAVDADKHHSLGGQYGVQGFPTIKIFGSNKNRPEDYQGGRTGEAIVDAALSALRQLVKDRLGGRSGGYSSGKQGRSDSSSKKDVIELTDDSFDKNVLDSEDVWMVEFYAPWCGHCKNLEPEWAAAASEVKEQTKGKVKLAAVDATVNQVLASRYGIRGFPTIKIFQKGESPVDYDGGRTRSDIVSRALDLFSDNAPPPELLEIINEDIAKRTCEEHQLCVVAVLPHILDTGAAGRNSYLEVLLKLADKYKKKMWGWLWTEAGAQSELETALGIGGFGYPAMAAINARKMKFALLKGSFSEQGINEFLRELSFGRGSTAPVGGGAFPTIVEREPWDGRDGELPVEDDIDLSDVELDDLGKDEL

PRMT1 C109 (Q99873) = PRMT1 C109 (Q99873) (Homo sapiens, UniProt Q99873); conditions: for R value (DMSO/fragment): 250 μM, in vitro; for isoTOP-ABPP ratio, Q99873_C109: 500 μM, invitro
STAT3 C259 (P40763) = STAT3 C259 (P40763) (Homo sapiens, UniProt P40763); conditions: for R value (DMSO/fragment): 250 μM, in vitro; for isoTOP-ABPP ratio, P40763_C259: 500 μM, invitro
XPO1 C34 (O14980) = XPO1 C34 (O14980) (Homo sapiens, UniProt O14980); conditions: for R value (DMSO/fragment): 250 μM, in vitro; for isoTOP-ABPP ratio, O14980_C34: 500 μM, invitro
Chain of XPO1 C34 (O14980) (O14980 whole entry, the tested form may be a part): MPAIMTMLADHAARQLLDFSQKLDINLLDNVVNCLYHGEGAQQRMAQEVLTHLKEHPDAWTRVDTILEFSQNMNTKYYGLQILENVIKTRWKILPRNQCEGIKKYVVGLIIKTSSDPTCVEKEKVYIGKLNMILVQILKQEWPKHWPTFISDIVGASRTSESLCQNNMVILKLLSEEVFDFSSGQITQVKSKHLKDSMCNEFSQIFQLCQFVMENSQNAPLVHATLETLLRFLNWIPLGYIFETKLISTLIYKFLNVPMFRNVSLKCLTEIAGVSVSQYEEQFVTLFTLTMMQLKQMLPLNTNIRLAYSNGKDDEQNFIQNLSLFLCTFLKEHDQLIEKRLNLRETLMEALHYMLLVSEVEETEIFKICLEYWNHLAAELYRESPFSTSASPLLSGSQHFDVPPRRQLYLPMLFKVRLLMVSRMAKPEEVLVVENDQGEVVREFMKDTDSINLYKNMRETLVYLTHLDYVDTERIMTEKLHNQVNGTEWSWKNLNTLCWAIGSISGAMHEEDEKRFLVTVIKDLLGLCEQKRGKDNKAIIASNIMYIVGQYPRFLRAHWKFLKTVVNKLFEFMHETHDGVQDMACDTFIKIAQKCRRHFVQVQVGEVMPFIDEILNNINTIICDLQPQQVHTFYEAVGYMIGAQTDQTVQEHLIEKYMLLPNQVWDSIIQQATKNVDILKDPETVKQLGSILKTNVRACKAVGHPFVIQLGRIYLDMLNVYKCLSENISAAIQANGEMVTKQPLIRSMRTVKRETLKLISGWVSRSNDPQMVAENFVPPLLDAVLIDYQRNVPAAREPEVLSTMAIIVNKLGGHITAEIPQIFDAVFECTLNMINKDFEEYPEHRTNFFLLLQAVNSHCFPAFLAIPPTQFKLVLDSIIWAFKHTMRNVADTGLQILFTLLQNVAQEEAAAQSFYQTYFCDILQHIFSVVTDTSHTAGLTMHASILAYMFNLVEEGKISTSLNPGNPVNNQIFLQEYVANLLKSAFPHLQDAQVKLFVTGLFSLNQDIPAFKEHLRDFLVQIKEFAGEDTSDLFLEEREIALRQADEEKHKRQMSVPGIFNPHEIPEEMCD

Chain of IDH1 C269 (O75874) (O75874 whole entry): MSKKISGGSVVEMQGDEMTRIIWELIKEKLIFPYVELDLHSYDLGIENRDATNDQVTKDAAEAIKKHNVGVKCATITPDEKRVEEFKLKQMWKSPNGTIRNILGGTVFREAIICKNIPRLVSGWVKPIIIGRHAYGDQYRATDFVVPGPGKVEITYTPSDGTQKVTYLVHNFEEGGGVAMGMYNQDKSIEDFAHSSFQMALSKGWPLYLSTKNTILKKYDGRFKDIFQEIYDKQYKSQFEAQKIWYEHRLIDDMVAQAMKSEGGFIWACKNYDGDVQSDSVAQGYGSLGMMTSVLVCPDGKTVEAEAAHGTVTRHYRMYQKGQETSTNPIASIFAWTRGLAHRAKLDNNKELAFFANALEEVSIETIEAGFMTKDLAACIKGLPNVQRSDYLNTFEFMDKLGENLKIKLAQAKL
Chain of STAT3 C259 (P40763) (P40763 whole entry, the tested form may be a part): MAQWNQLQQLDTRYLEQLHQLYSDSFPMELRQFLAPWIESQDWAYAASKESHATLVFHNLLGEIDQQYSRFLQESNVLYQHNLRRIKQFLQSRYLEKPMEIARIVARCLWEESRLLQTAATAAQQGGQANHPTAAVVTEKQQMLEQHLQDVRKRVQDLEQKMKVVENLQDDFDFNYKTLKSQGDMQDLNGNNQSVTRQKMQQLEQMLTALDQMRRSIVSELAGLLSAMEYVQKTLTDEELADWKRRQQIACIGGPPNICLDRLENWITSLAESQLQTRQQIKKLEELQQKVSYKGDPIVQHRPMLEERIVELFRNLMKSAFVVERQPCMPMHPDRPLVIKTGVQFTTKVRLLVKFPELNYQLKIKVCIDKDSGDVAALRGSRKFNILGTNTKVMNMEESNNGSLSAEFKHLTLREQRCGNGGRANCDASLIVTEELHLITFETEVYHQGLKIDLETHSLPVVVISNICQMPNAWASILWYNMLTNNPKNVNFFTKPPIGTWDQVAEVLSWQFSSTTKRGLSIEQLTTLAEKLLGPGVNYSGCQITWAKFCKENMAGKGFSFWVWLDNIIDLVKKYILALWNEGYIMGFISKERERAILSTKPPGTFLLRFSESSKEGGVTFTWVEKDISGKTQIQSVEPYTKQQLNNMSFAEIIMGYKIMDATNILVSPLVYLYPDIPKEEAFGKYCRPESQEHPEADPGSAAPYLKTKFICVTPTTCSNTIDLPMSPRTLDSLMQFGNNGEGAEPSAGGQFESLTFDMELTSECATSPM
Chain of PRMT1 C109 (Q99873) (Q99873 whole entry, the tested form may be a part): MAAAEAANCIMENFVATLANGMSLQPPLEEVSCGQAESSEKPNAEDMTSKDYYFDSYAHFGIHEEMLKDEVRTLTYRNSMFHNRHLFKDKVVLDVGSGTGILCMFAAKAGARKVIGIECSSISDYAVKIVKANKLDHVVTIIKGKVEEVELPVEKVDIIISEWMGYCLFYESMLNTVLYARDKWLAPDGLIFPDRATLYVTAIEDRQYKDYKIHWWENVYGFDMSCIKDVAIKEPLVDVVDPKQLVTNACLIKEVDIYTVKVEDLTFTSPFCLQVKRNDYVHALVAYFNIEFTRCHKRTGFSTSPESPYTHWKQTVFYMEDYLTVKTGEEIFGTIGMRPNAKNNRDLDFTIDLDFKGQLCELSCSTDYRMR
Chain of GSTP1 C48 (P09211) (P09211 whole entry, the tested form may be a part): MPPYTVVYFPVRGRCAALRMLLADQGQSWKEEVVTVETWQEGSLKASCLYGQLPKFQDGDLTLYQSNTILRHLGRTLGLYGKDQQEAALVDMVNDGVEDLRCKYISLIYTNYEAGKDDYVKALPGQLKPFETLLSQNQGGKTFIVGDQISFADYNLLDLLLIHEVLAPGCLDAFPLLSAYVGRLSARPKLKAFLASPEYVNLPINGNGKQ

| SMILES | isoTOP-ABPP ratio, P09211_C48 (GSTP1 C48 (P09211); 231) | isoTOP-ABPP ratio, Q99873_C109 (PRMT1 C109 (Q99873); 231) | isoTOP-ABPP ratio (reactivity profile), P09211_C48 (GSTP1 C48 (P09211); 500 μm in-vitro ramos) | isoTOP-ABPP ratio (reactivity profile), P09211_C48 (GSTP1 C48 (P09211); 500 μm in-vitro ramos_231) | isoTOP-ABPP ratio (reactivity profile), O75874_C269 (IDH1 C269 (O75874); 500 μm in-vitro ramos_231) | isoTOP-ABPP ratio (reactivity profile), P16455_C150 (MGMT C150 (P16455)) | isoTOP-ABPP ratio (reactivity profile), Q16822_C306 (PCK2 C306 (Q16822); 500 μm in-vitro ramos) | isoTOP-ABPP ratio (reactivity profile), Q16822_C306 (PCK2 C306 (Q16822); 500 μm in-vitro ramos_231) | isoTOP-ABPP ratio (reactivity profile), Q15084_C190 (PDIA6 C190 (Q15084); 500 μm in-vitro ramos_231) | isoTOP-ABPP ratio (reactivity profile), Q99873_C109 (PRMT1 C109 (Q99873); 500 μm in-vitro ramos) | isoTOP-ABPP ratio (reactivity profile), Q99873_C109 (PRMT1 C109 (Q99873); 500 μm in-vitro ramos_231) | isoTOP-ABPP ratio (reactivity profile), O14980_C34 (XPO1 C34 (O14980); 500 μm in-vitro ramos) | isoTOP-ABPP ratio (reactivity profile), O14980_C34 (XPO1 C34 (O14980); 500 μm in-vitro ramos_231) | isoTOP-ABPP ratio (reactivity profile), O75874_C269 (IDH1 C269 (O75874); 500 μm in-vitro ramos) | isoTOP-ABPP ratio (reactivity profile), Q15084_C190 (PDIA6 C190 (Q15084); 500 μm in-vitro ramos) | isoTOP-ABPP ratio (reactivity profile), P40763_C259 (STAT3 C259 (P40763); 500 μm in-vitro ramos) | further results |
| --- | --- | --- | --- | --- | --- | --- | --- | --- | --- | --- | --- | --- | --- | --- | --- | --- | --- |
| COc1ccc(C2CC(c3cccs3)=NN2C(=O)CCl)cc1 (stereo not shown) [compound 4] | – | – | – | – | – | – | – | – | – | – | – | – | – | – | – | – | R value (DMSO/fragment) (GSTP1 C48 (P09211); MDA-MB-231): 3.2; R value (DMSO/fragment) (GSTP1 C48 (P09211); Ramos): 0.5; R value (DMSO/fragment) (IDH1 C269 (O75874); 250 μM, in vitro, MDA-MB-231): 1.6; R value (DMSO/fragment) (IDH1 C269 (O75874); 250 μM, in vitro, Ramos): 0.6; R value (DMSO/fragment) (MGMT C150 (P16455); 250 μM, in vitro, Ramos): 6.9; R value (DMSO/fragment) (PCK2 C306 (Q16822); 250 μM, in vitro, MDA-MB-231): 2.2; R value (DMSO/fragment) (PDIA6 C190 (Q15084); MDA-MB-231): 1.8; R value (DMSO/fragment) (PDIA6 C190 (Q15084); Ramos): 1.2; R value (DMSO/fragment) (PRMT1 C109 (Q99873); MDA-MB-231): 1.1; R value (DMSO/fragment) (PRMT1 C109 (Q99873); Ramos): 0.2; R value (DMSO/fragment) (STAT3 C259 (P40763); MDA-MB-231): 2.0; R value (DMSO/fragment) (STAT3 C259 (P40763); Ramos): 1.9; R value (DMSO/fragment) (XPO1 C34 (O14980); MDA-MB-231): 1.0; R value (DMSO/fragment) (XPO1 C34 (O14980); Ramos): 0.2 |
| O=C(CCl)N1CCN(S(=O)(=O)c2ccccc2F)CC1 [compound 10] | 1.4 | 2.3 | – | – | – | – | – | – | – | – | – | – | – | – | – | – | isoTOP-ABPP ratio, P09211_C48 (GSTP1 C48 (P09211); ramos): 0.8; isoTOP-ABPP ratio, O75874_C269 (IDH1 C269 (O75874); 231): 20.0; isoTOP-ABPP ratio, P16455_C150 (MGMT C150 (P16455)): 20.0; isoTOP-ABPP ratio, Q16822_C306 (PCK2 C306 (Q16822); 231): 1.9; isoTOP-ABPP ratio, Q16822_C306 (PCK2 C306 (Q16822); ramos): 1.1; isoTOP-ABPP ratio, Q15084_C190 (PDIA6 C190 (Q15084); ramos): 3.3; isoTOP-ABPP ratio, Q99873_C109 (PRMT1 C109 (Q99873); ramos): 1.3; isoTOP-ABPP ratio, P40763_C259 (STAT3 C259 (P40763); 231): 3.4; isoTOP-ABPP ratio, O14980_C34 (XPO1 C34 (O14980); 231): 1.2; isoTOP-ABPP ratio, O14980_C34 (XPO1 C34 (O14980); ramos): 0.7 |
| O=C(CCl)N1CCN(CC(=O)N2CCOCC2)CC1 [compound 29] | – | – | 0.4 | 1.0 | 0.8 | 1.3 | 0.5 | 1.1 | 1.2 | 0.9 | 1.0 | 0.9 | 1.3 | – | – | – | isoTOP-ABPP ratio (reactivity profile), P40763_C259 (STAT3 C259 (P40763); 500 μm in-vitro ramos_231): 1.5 |
| O=C(CCl)N1CCC(C(O)(c2ccccc2)c2ccccc2)CC1 [compound 20] | – | – | 1.1 | 2.5 | – | 18.3 | 1.6 | 2.5 | 2.1 | 2.2 | 1.9 | 1.2 | 1.0 | 0.6 | 2.1 | 3.0 | R value (DMSO/fragment) (IDH1 C269 (O75874); 25 μM, endogenous IDH1, MDA-MB-231 proteome): 20 |
| N#C/C(=C\c1cc(C(F)(F)F)cc(C(F)(F)F)c1)C(N)=O [compound 23] | – | – | 0.9 | 0.8 | 0.7 | 1.0 | – | 3.0 | 0.8 | 1.0 | 0.8 | 5.3 | 3.4 | 1.1 | 1.1 | 0.8 | isoTOP-ABPP ratio (reactivity profile), P40763_C259 (STAT3 C259 (P40763); 500 μm in-vitro ramos_231): 1.1 |
| O=C(CCl)NC12CC3CC(CC(C3)C1)C2 [compound 21] | – | – | 1.3 | 1.1 | 1.5 | 17.2 | 2.0 | 1.2 | 1.1 | 1.5 | 1.1 | 1.2 | 0.9 | – | 2.3 | 2.9 | – |
| Cn1cc(S(=O)(=O)N2CCOCC2)cc1C(=O)NC(=O)CCl [compound 11] | 1.7 | 20.0 | – | – | – | – | – | – | – | – | – | – | – | – | – | – | isoTOP-ABPP ratio, P09211_C48 (GSTP1 C48 (P09211); ramos): 1.1; isoTOP-ABPP ratio, O75874_C269 (IDH1 C269 (O75874); 231): 1.1; isoTOP-ABPP ratio, O75874_C269 (IDH1 C269 (O75874); ramos): 0.7; isoTOP-ABPP ratio, P16455_C150 (MGMT C150 (P16455)): 20.0; isoTOP-ABPP ratio, Q16822_C306 (PCK2 C306 (Q16822); 231): 3.2; isoTOP-ABPP ratio, Q16822_C306 (PCK2 C306 (Q16822); ramos): 1.2; isoTOP-ABPP ratio, Q15084_C190 (PDIA6 C190 (Q15084); 231): 20.0; isoTOP-ABPP ratio, Q15084_C190 (PDIA6 C190 (Q15084); ramos): 20.0; isoTOP-ABPP ratio, Q99873_C109 (PRMT1 C109 (Q99873); ramos): 20.0; blockade of IA-alkyne labeling of C109 of PRMT1 (PRMT1 C109 (Q99873); competitive isoTOP-ABPP): blocking IA-alkyne labeling; isoTOP-ABPP ratio, P40763_C259 (STAT3 C259 (P40763); 231): 20.0; isoTOP-ABPP ratio, P40763_C259 (STAT3 C259 (P40763); ramos): 20.0; isoTOP-ABPP ratio, O14980_C34 (XPO1 C34 (O14980); 231): 1.2; isoTOP-ABPP ratio, O14980_C34 (XPO1 C34 (O14980); ramos): 1.0 |
| C=CC(=O)N(Cc1cccnc1)c1ccc(Oc2ccccc2)c(C(F)(F)F)c1 [compound 15] | 2.5 | 0.9 | 1.3 | – | – | 1.9 | – | – | – | 1.2 | – | 1.2 | – | 0.6 | 1.2 | 1.9 | isoTOP-ABPP ratio, Q15084_C190 (PDIA6 C190 (Q15084); 231): 0.9 |
| CC(Br)C(=O)Nc1cc(C(F)(F)F)cc(C(F)(F)F)c1 (stereo not shown) [compound 24] | – | – | 1.6 | – | – | 4.0 | – | – | – | 1.0 | – | 1.1 | – | 0.9 | 1.7 | 1.7 | – |
